Results from US11590116B2 (THERAVANCE BIOPHARMA R&D IP, LLC, priority 2019, dated 2023).

Experiments:
[1] = test system: TGF-β-stimulated SMAD3 phosphorylation in BEAS-2B cells; assay: Cellular ALK5 potency assay, inhibition of TGF-β stimulated pSMAD3 formation in BEAS-2B cells; type: cell-based; conditions: Homo sapiens; inhibition of TGF-β stimulated pSMAD3 formation, BEAS-2B cells; read-out: BEAS2B pIC50 (converted)
Outline: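 SMAD3 phosphorylation was measured by AlphaLISA after 30 min TGF-β stimulation (10 ng/mL final) of BEAS-2B cells preincubated 1 h with compound at 37 °C. Results given as pIC50.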

[2] = molecular target: T1, recombinant human ALK5 (TGF-βR1) protein (Homo sapiens, UniProt P36897); assay: Biochemical ALK5 (TGF-βR1) assay to measure pKi (LANCE Ultra ULight kinase assay); conditions: apparent pKi from pIC50 by Cheng-Prusoff, read-out: ALK5 pKi (converted)
T1 construct: purchased Life Technologies PR9075A
T1 sequence (P36897 34-503): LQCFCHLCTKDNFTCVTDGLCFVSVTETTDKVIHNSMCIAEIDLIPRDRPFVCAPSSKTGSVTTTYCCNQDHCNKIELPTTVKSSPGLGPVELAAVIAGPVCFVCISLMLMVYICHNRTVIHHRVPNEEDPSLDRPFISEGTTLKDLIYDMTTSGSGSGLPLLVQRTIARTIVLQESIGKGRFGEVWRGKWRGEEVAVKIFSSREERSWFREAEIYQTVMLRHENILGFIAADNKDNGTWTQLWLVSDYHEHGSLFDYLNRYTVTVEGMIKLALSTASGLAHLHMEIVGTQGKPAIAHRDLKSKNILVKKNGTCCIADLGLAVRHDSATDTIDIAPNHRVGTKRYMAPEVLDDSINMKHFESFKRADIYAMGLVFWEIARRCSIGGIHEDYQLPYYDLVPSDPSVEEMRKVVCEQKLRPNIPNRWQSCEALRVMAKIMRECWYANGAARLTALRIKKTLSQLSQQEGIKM
Outline: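 Compounds (10 μM to 25 pM) were preincubated 60 min at room temperature with enzyme, then reactions were started with ATP (125 μM stock, 5× final) and run 60 min at 37 °C. EDTA-containing Eu-anti-phospho-Topo IIα (Thr1342) antibody stopped the reaction; TR-FRET read at 665 nm. pIC50 from 4-parameter fit, converted to pKi via Cheng-Prusoff.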

SMILES	IC50 [1]	Ki [2]
Cc1cccc(-c2[nH]cnc2-c2ccc3ncc(-c4cc(C(=O)O[C@H]5CCNC5)ccn4)cc3c2)n1 [Compound 1060, [(3S)-pyrrolidin-3-yl] 2-[6-[5-(6-methyl-2-pyridyl)-1H-imidazol-4-yl]-3-quinolyl]pyridine-4-carboxylate]	25.1 to 158 nM	0.0398 to 0.316 nM
COC(=O)c1ccnc2ccc(-c3cn[nH]c3-c3cccc(C)n3)cc12 [Compound 1061, methyl 6-[5-(6-methyl-2-pyridyl)-1H-pyrazol-4-yl]quinoline-4-carboxylate]	25.1 to 158 nM	0.0398 to 0.316 nM
Cc1cccc(-c2[nH]cnc2-c2ccc3ncc(-c4cccc(C(=O)OC5CCNCC5)n4)cc3c2)n1 [Compound 1062, 4-piperidyl 6-[6-[5-(6-methyl-2-pyridyl)-1H-imidazol-4-yl]-3-quinolyl]pyridine-2-carboxylate]	25.1 to 158 nM	0.0398 to 0.316 nM
Cc1cccc(-c2[nH]cnc2-c2ccc3ncc(-c4ncc(C(=O)OC5CNC5)cn4)cc3c2)n1 [Compound 1063, azetidin-3-yl 2-[6-[5-(6-methyl-2-pyridyl)-1H-imidazol-4-yl]-3-quinolyl]pyrimidine-5-carboxylate]	25.1 to 158 nM	0.0398 to 0.316 nM
Cc1cccc(-c2[nH]ncc2-c2ccc3nccc(C(=O)O)c3c2)n1 [Compound 1064, 6-[5-(6-methyl-2-pyridyl)-1H-pyrazol-4-yl]quinoline-4-carboxylic acid]	1580 to 10000 nM	3.98 to 31.6 nM
Cc1cccc(-c2[nH]cnc2-c2ccc3ncc(C(=O)OCCN4CCC5NCCC5C4)cc3c2)n1 (centres unmarked) [Compound 1065, 2-(1,2,3,3a,4,6,7,7a-octahydropyrrolo[3,2-c]pyridin-5-yl)ethyl 6-[5-(6-methyl-2-pyridyl)-1H-imidazol-4-yl]quinoline-3-carboxylate]	200 to 1260 nM	0.0398 to 0.316 nM
Cc1cccc(-c2[nH]cnc2-c2ccc3ncc(C(=O)O[C@H]4CC[C@@H](N)CC4)cc3c2)n1 [Compound 1066, (4-aminocyclohexyl) 6-[5-(6-methyl-2-pyridyl)-1H-imidazol-4-yl]quinoline-3-carboxylate]	200 to 1260 nM	0.398 to 3.16 nM
Cc1cccc(-c2[nH]cnc2-c2ccc3ncc(C(=O)OCCN4CCN5CCCC5C4)cc3c2)n1 (centres unmarked) [Compound 1067, 2-(3,4,6,7,8,8a-hexahydro-1H-pyrrolo[1,2-a]pyrazin-2-yl)ethyl 6-[5-(6-methyl-2-pyridyl)-1H-imidazol-4-yl]quinoline-3-carboxylate]	25.1 to 158 nM	0.0398 to 0.316 nM
Cc1cccc(-c2[nH]cnc2-c2ccc3ncc(-c4nc5c(s4)CNCC5)cc3c2)n1 [Compound 1068, 2-[6-[5-(6-methyl-2-pyridyl)-1H-imidazol-4-yl]-3-quinolyl]-4,5,6,7-tetrahydrothiazolo[5,4-c]pyridine]	< 20 nM	0.0398 to 0.316 nM
Cc1cccc(-c2[nH]cnc2-c2ccc3ncc(-c4cc(C(=O)OCC5CNC5)cs4)cc3c2)n1 [Compound 1070, azetidin-3-ylmethyl 5-[6-[5-(6-methyl-2-pyridyl)-1H-imidazol-4-yl]-3-quinolyl]thiophene-3-carboxylate]	25.1 to 158 nM	< 0.0316 nM
CN[C@H]1CC[C@@H](OC(=O)c2cnc3ccc(-c4nc[nH]c4-c4cccc(C)n4)cc3c2)CC1 [Compound 1071, [4-(methylamino)cyclohexyl] 6-[5-(6-methyl-2-pyridyl)-1H-imidazol-4-yl]quinoline-3-carboxylate]	25.1 to 158 nM	0.398 to 3.16 nM
Cc1cccc(-c2[nH]cnc2-c2ccc3ncc(-c4cnc(C(=O)O[C@H]5CCNC5)nc4)cc3c2)n1 [Compound 1072, [(3S)-pyrrolidin-3-yl] 5-[6-[5-(6-methyl-2-pyridyl)-1H-imidazol-4-yl]-3-quinolyl]pyrimidine-2-carboxylate]	200 to 1260 nM	0.0398 to 0.316 nM
Cc1cccc(-c2[nH]cnc2-c2ccc3ncc(-c4nccc(C(=O)O[C@H]5CCNC5)n4)cc3c2)n1 [Compound 1073, [(3S)-pyrrolidin-3-yl] 2-[6-[5-(6-methyl-2-pyridyl)-1H-imidazol-4-yl]-3-quinolyl]pyrimidine-4-carboxylate]	1580 to 10000 nM	0.398 to 3.16 nM
Cc1cccc(-c2[nH]cnc2-c2ccc3ncc(-c4cc(C(=O)OC5CNC5)ccn4)cc3c2)n1 [Compound 1074, azetidin-3-yl 2-[6-[5-(6-methyl-2-pyridyl)-1H-imidazol-4-yl]-3-quinolyl]pyridine-4-carboxylate]	25.1 to 158 nM	0.0398 to 0.316 nM
Cc1cccc(-c2[nH]cnc2-c2ccc3ncc(-c4nccc(C(=O)OC5CNC5)n4)cc3c2)n1 [Compound 1075, azetidin-3-yl 2-[6-[5-(6-methyl-2-pyridyl)-1H-imidazol-4-yl]-3-quinolyl]pyrimidine-4-carboxylate]	200 to 1260 nM	0.398 to 3.16 nM
Cc1cccc(-c2[nH]cnc2-c2ccc3nccc(C(=O)OC[C@H]4CC[C@@H](N)CC4)c3c2)n1 [Compound 1077, (4-aminocyclohexyl)methyl 6-[5-(6-methyl-2-pyridyl)-1H-imidazol-4-yl]quinoline-4-carboxylate]	25.1 to 158 nM	0.398 to 3.16 nM
Cc1cccc(-c2[nH]cnc2-c2ccc3nccc(C(=O)OCC4CCNCC4)c3c2)n1 [Compound 1078, 4-piperidylmethyl 6-[5-(6-methyl-2-pyridyl)-1H-imidazol-4-yl]quinoline-4-carboxylate]	25.1 to 158 nM	0.398 to 3.16 nM
Cc1cccc(-c2[nH]cnc2-c2ccc3ncc(-c4ncc(C(=O)O[C@@H]5CCNC5)cn4)cc3c2)n1 [Compound 1079, [(3R)-pyrrolidin-3-yl] 2-[6-[5-(6-methyl-2-pyridyl)-1H-imidazol-4-yl]-3-quinolyl]pyrimidine-5-carboxylate]	25.1 to 158 nM	0.0398 to 0.316 nM
Cc1cccc(-c2[nH]cnc2-c2ccc3nccc(C(=O)OC[C@H]4CC[C@H](N)CC4)c3c2)n1 [Compound 1081, (4-aminocyclohexyl)methyl 6-[5-(6-methyl-2-pyridyl)-1H-imidazol-4-yl]quinoline-4-carboxylate]	200 to 1260 nM	0.398 to 3.16 nM
Cc1cccc(-c2[nH]cnc2-c2ccc3ncc(-c4cc(C(=O)O)cs4)cc3c2)n1 [Compound 1082, 5-[6-[5-(6-methyl-2-pyridyl)-1H-imidazol-4-yl]-3-quinolyl]thiophene-3-carboxylic acid]	200 to 1260 nM	< 0.0316 nM
Cc1cccc(-c2[nH]cnc2-c2ccc3ncc(-c4ncc(C5=CCNCC5)s4)cc3c2)n1 [Compound 1084, 2-[6-[5-(6-methyl-2-pyridyl)-1H-imidazol-4-yl]-3-quinolyl]-5-(1,2,3,6-tetrahydropyridin-4-yl)thiazole]	< 20 nM	0.0398 to 0.316 nM
Cc1cccc(-c2[nH]ncc2-c2ccc3nccc(C(=O)OC[C@@H]4CCCCN4)c3c2)n1 [Compound 1085, [(2S)-2-piperidyl]methyl 6-[5-(6-methyl-2-pyridyl)-1H-pyrazol-4-yl]quinoline-4-carboxylate]	25.1 to 158 nM	0.398 to 3.16 nM
Cc1cccc(-c2[nH]cnc2-c2ccc3ncc(-c4ccnc(C(=O)OCC5CNC5)c4)cc3c2)n1 [Compound 1086, azetidin-3-ylmethyl 4-[6-[5-(6-methyl-2-pyridyl)-1H-imidazol-4-yl]-3-quinolyl]pyridine-2-carboxylate]	200 to 1260 nM	0.0398 to 0.316 nM
Cc1cccc(-c2[nH]cnc2-c2ccc3ncc(-c4cc(C(=O)O[C@@H]5CCNC5)ccn4)cc3c2)n1 [Compound 1087, [(3R)-pyrrolidin-3-yl] 2-[6-[5-(6-methyl-2-pyridyl)-1H-imidazol-4-yl]-3-quinolyl]pyridine-4-carboxylate]	25.1 to 158 nM	< 0.0316 nM
Cc1cccc(-c2[nH]cnc2-c2ccc3ncc(-c4ccc(C(=O)OCCN5CCNCC5)s4)cc3c2)n1 [Compound 1088, 2-piperazin-1-ylethyl 5-[6-[5-(6-methyl-2-pyridyl)-1H-imidazol-4-yl]-3-quinolyl]thiophene-2-carboxylate]	25.1 to 158 nM	0.0398 to 0.316 nM
Cc1cccc(-c2[nH]cnc2-c2ccc3ncc(-c4cccc(C(=O)O[C@H]5CCNC5)n4)cc3c2)n1 [Compound 1089, [(3S)-pyrrolidin-3-yl] 6-[6-[5-(6-methyl-2-pyridyl)-1H-imidazol-4-yl]-3-quinolyl]pyridine-2-carboxylate]	25.1 to 158 nM	0.0398 to 0.316 nM
Cc1cccc(-c2[nH]cnc2-c2ccc3ncc(C(=O)OCCCC4CNC4)cc3c2)n1 [Compound 1090, 3-(azetidin-3-yl)propyl 6-[5-(6-methyl-2-pyridyl)-1H-imidazol-4-yl]quinoline-3-carboxylate]	200 to 1260 nM	0.0398 to 0.316 nM
Cc1cccc(-c2[nH]cnc2-c2ccc3ncc(-c4ccc(C(=O)O)cn4)cc3c2)n1 [Compound 1091, 6-[6-[5-(6-methyl-2-pyridyl)-1H-imidazol-4-yl]-3-quinolyl]pyridine-3-carboxylic acid]	1580 to 10000 nM	< 0.0316 nM
